Starred links: 1 amine or outer side, 2 acyl side, 3 side chain; linkers in the order of their positions; H or OH if unused. Positions of bridges follow the written chain, without caps; N, C: chain ends. Residues, ends and D or L forms follow the SMILES beside them. *: point of attachment. C18 diacid = O=C(O)CCCCCCCCCCCCCCCCC(=O)*; γGlu = O=C(O)[C@H](CCC(=O)[*:2])N[*:1]
Legend:
[1] = target: neprilysin (NEP) (Homo sapiens, UniProt P08473); assay: In vitro neprilysin stability; conditions: recombinant human neprilysin (rhNEP), pH 7.4
Experimental: Therefore, an in vitro neprilysin stability assay was set up to test the neprilysin mediated degradation of selected CNP compounds.
Procedure: In short, the assay buffer consisted of PBS-buffer (pH 7.4, ThermoFisher Scientific) with a final concentration of 0.005% v/v tween 20 (Sigma-Aldrich). Recombinant human neprilysin (rhNEP; R&D Systems) and the CNP compounds were dissolved in assay buffer. Native CNP22 (0065, Chem. 1) was included as positive control on each day of incubation. Initially, the CNP compound (the final concentration was 1000 nM) was pre-incubated in assay buffer for 10 min at 37° C. The assay was started by adding either rhNEP (final concentration was 2 μg protein per mL) or assay buffer (adsorption experiment) and the incubation was conducted at 37° C. […] The mixture was centrifuged at 13000 rpm at 4° C. for 20 minutes. After centrifugation, one volume of supernatant was mixed with one volume of Milli-Q water.
Analysis by LCMS: The mixture was analysed by LCMS using an Acquity UPLC Peptide CSH C18 analytical column from Waters (130 Å, 1.7 μm, 1*50 mm) operated at 60° C. A gradient elution was conducted with a Nexera UHPLC system (Shimadzu) using mobile phase A (consisting of Milli-Q water with 0.1% formic acid) and mobile phase B (consisting of acetonitrile with 0.1% formic acid). The flow was 0.3 ml/min. A zenoTOF 7600 mass spectrometer (Sciex) was used as detector and operated in positive electrospray ionisation mode. Data was recorded in full scan mode (m/z 300-1700).
Calibration curves were prepared in assay buffer and treated as study samples. These samples were used for calculating the concentration of the relevant CNP compound in the in vitro samples. Quality control samples were included. For at least 75% of the standards and QCs, the deviation between nominal and calculated concentration was below 20%.
All incubations were conducted in duplicate. Data was reported as percent remaining at 90 min (based on calculated concentrations) compared to the average concentration in the 0.5-minute time point samples.

[2] = Accelerated chemical stability (RP-UPLC recovery and LCMS degradation pattern, 37° C.); type: physicochemical; set-up: Isomers TZ / Isomers 2 W / Loss of 18 amu TZ / Loss of 18 amu 2 W / Fragments TZ / Fragments 2 W / Fragments 1 W / Fragments 3 W / Fragments 4 W / Fragments 5 W / Fragments 6 W / Others 1 W / Others 3 W / Others 4 W / Others 5 W / Others 6 W / Isomers 1 W / Isomers 3 W / Isomers 4 W / Isomers 5 W / Isomers 6 W / Loss of 18 amu 1 W / Loss of 18 amu 3 W / Loss of 18 amu 4 W / Loss of 18 amu 5 W / Loss of 18 amu 6 W: unit not given here; conditions: LCMS, 5 mM sodium acetate, 250 mM glycerol, pH 4
Experimental: In order to determine the chemical stability of CNP compounds in formulation, samples of CNP compounds in buffer were exposed to accelerated chemical degradation by heating. The stability of a given peptide was assessed by measuring recovery of intact peptide by quantification by RP-UPLC. To assess the chemical degradation pattern samples were also analysed by LC-MS.
Sample preparation: Samples for the 2 week study were prepared according to the principles described in Example 5.
Samples for the 6 week study were prepared by dissolving lyophilized peptide in buffer (8 mM phosphate, 250 mM glycerol, pH 7.4) to a nominal peptide concentration of 5000 nmol/ml followed by pH adjustment with 0.1 N HCl to pH 6.5.
Incubation: For the 2 week study a time-zero (TZ) sample was pulled and stored at −18° C. and the remaining volume was incubated at 37° C. Samples were pulled and stored at −18° C. after 2 weeks of incubation. Frozen samples were thawed, diluted to about 200 nmol/mL and the extent of chemical degradation was determined using LCMS as described.
For the 6 week study a time-zero (TZ) sample was pulled and stored at −18° C. and the remaining volume was incubated at 37° C. Samples were pulled on a weekly basis and stored at −18° C. until the last sampling time point at 6 weeks. Frozen samples were thawed, diluted to about 200 nmol/mL and the extent of chemical degradation was determined using RP-UPLC and LCMS as described.
Analysis of peptide recovery by RP-UPLC: The RP-UPLC method was performed on a Waters ACQUITY H-CLASS UPLC system fitted with a PDA detector. Separation was carried out on an ACQUITY UPLC BEH C8 Column (130 Å, 1.7 μm, 2.1 mm×150 mm) operating at a column temperature of 50° C. with eluent A (19.59 mM NH4H2PO4 41.71 mM (NH4)2HPO4, pH 6.5 and MeCN 9:1 v:v) and eluent B (80% MeCN in water). UV-detection was carried out at 214 nm. The analysis was performed by injection of 3 μL of sample onto the column which was eluted with a 1-step linear gradient of eluents A and B from 27 to 30% B over 20 minutes followed by a wash at 95% B over 2 minutes followed by a re-equilibration phase for 7 minutes at a constant flow rate of 0.3 mL/min. This yielded an analysis time of 30 minutes per sample. The area of the peak corresponding to intact CNP compound was given on a percentage scale relative to the total peptide peak area.
Analysis of chemical degradation patterns by LCMS: Samples were analysed on a […] UPLC from Thermo Scientific, using a Waters Acquity C18 reversed-phase column, 300 Å, […] particles 1 mm×150 mm. The compounds were separated by a linear gradient of solvent B from 5% to 55% over 48 minutes, using solvent A: water, 0.1% formic acid with 0.02% TFA and solvent B: acetonitrile, 0.1% formic acid with 0.02% TFA. Mass spectra were acquired by a Q Exactive Plus hybrid Quadrupole-Orbitrap mass spectrometer, BioPharma option (Thermo Scientific) interfaced with H-ESI II ion source. Data acquisitions were performed with a m/z 500 to 2000 scan range and a resolution of 30000.
The data list was aggregated into a summed table of the compounds. The table headers were defined as follows: […]
Results: The results from LCMS analysis of a 2 week accelerated degradation study on several CNP compounds of the present invention are summarised in Table 12. The results from RP-UPLC and LCMS analysis of a 6 week accelerated degradation study on CNP compound 9482 (Chem. 137) is summarised in Table 13 and Table 14 respectively.

[3] = PK after i.v. and s.c. administration to Göttingen minipig; conditions: female, Göttingen, minipig, in vivo
Experimental: The purpose of this study was to investigate pharmacokinetic and pharmacodynamic properties after intravenous (i.v.) and subcutaneous (s.c.) administration to Gottingen Minipig and domestic LYD pig, and to estimate bioavailability after s.c. dosing. Quantitative plasma analysis of CNP and cGMP levels were performed as described in
Animals and dosing: The pharmacokinetic and pharmacodynamic studies in Gottingen Minipig or domestic LYD pig were conducted at CRO Minerva Imaging or Novo Nordisk A/S, respectively. CNP compounds were dosed to normal female 1) Gottingen minipigs 6-12 months of age with an average weight of 22 kg or 2) domestic LYD pigs 4-5 months of age with and average weight of 80 kg. At least one week prior to dosing, permanent central venous catheters were implanted for blood sampling and intravenous (i.v.) dosing. For subcutaneous (s.c.) dosing, the pigs were ultrasound scanned and the optimal injection area laterally on the neck marked by a permanent tattoo. An insulin pen (NovoPen Echo or NovoPen 4) and insulin needle (NovoFine 32G/4 mm or NovoTwist 32G/5 mm) were used for accurate deposition of the CNP formulations in the subcutaneous fat tissue with the needle perpendicular to the skin.
CNP compounds were formulated according to the principles in General Methods of Preparation—Method G and were either A) 8 mM sodium phosphate, 250 mM glycerol, pH 6.5, B) 5 mM sodium acetate, 250 mM glycerol, pH 4.0, C) 5 mM sodium acetate, 240 mM propylene glycol, pH=4.0, D) 8 mM sodium phosphate, 250 mM glycerol, pH 7.5 or E) 20 mM sodium phosphate, 223 mM propylene glycol, pH 6.0.
Intravenously, the CNP compounds were dosed at 30-60 nmol/kg to Minipig and 15-43 nmol/kg to domestic pig using formulations A-E. Subcutaneously, the CNP compounds were dosed at 55-62 nmol/kg to Minipig and 20-30 nmol/kg to domestic pig using formulations A-D.
Sampling: Blood samples of approximately 1 mL were collected pre dose and up to 14 days post dose into EDTA-coated tubes (8 mM) for cGMP and CNP compound analysis by LC-MS. In few instances, cGMP was only analysed up to 48 hours post dose after intravenous dosing in domestic LYD pig. The blood samples were kept on wet ice for maximum 30 minutes until centrifugation for 10 minutes at 4° C. and minimum 1500G, and the plasma samples were stored at −20° C. until analysis.
Plasma concentration-time profiles were analyzed by non-compartmental PK analysis using Phoenix WinNonlin 8.1, Pharsight Inc., Mountain View, CA, USA. Calculation of the area under the plasma concentration-time curve (AUC) was based on the “linear up log down” method, and uniform weighting was used for estimation of the terminal rate constant (λz). S.c. bioavailability (F) was calculated as the dose-normalized AUC (AUC/dose) after s.c. administration divided by the AUC/dose after i.v. administration. […]

Chain of neprilysin (NEP) (P08473 whole entry, the tested form may be a part): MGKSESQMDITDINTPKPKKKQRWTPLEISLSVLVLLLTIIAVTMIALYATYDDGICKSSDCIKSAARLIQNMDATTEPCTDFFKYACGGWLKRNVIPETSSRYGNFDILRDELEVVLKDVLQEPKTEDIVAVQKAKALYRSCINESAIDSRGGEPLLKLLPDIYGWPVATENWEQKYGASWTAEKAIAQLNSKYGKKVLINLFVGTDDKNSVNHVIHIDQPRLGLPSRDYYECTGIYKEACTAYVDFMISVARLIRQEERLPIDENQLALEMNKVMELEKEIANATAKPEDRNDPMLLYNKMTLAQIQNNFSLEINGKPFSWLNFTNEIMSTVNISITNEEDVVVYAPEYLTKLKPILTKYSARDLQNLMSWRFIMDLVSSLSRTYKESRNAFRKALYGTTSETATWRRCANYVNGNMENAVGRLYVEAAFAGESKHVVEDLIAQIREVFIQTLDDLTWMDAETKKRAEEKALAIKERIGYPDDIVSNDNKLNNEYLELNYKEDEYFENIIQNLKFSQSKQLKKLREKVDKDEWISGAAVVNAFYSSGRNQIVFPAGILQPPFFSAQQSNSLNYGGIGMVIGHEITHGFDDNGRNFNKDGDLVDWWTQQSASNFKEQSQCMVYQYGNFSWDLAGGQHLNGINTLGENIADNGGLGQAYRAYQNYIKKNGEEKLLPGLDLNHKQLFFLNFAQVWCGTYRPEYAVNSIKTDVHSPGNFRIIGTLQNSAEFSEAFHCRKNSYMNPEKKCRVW

## CC[C@H](C)[C@@H]1NC(=O)[C@H](CCCNC(=N)N)NC(=O)[C@H](CCC(=O)O)NC(=O)[C@H](CC(C)C)NC(=O)[C@@H]2CCCN2C(=O)[C@H](CC(C)C)NC(=O)CNC(=O)[C@H](Cc2ccccc2)NC(=O)[C@@H](NC(=O)CNC(=O)[C@H](CO)NC(=O)[C@H](CO)NC(=O)[C@H](CC(C)C)NC(=O)CNC(=O)[C@H](CCCCN)NC(=O)[C@H](CCCCN)NC(=O)[C@H](CCC(N)=O)NC(=O)[C@H](C)NC(=O)CNC(=O)[C@H](CCCCN)NC(=O)[C@H](Cc2ccc(O)cc2)NC(=O)[C@H](CCCCN)NC(=O)[C@H](CCCNC(=N)N)NC(=O)[C@H](C)NC(=O)[C@H](CCC(N)=O)NC(=O)[C@@H]2CCCN2C(=O)[C@H](Cc2c[nH]cn2)NC(=O)[C@H](CCC(=O)O)NC(=O)[C@H](CCC(N)=O)NC(=O)CC[C@H](NC(=O)CC[C@H](NC(=O)CC[C@H](NC(=O)CC[C@H](NC(=O)CCCCCCCCCCCCCCCCC(=O)O)C(=O)O)C(=O)O)C(=O)O)C(=O)O)CSSC[C@@H](C(=O)O)NC(=O)CNC(=O)[C@H](CC(C)C)NC(=O)CNC(=O)[C@H](CO)NC(=O)[C@H](CC(C)C)NC(=O)[C@H](CO)NC(=O)CNC1=O [Compound 9483] ({C18 diacid-γGlu-γGlu-γGlu-γGlu}-QEHPQARKYKGAQKKGLSSGCFGLPLERIGSLSGLGC-OH; disulfide 21-37)
[1]
  remaining at 1.5 h, 1000 nM: 106%
[2]; 2 weeks at 37° C.
  Fragments 2 W: 0
  Isomers 2 W: 0
  Loss of 18 amu 2 W: 0
  Others 2 W: 0.6%
[2]; time zero
  Fragments TZ: 0
  Isomers TZ: 0
  Loss of 18 amu TZ: 0
  Others TZ: 0.2%
[3]; iv
  clearance: 1.04 mL/h/kg
  half-life: 3.67 days
[3]; sc
  bioavailability: 44%
  half-life: 3.12 days

Reference: US20240209028A1, “CNP COMPOUNDS” (priority 2022, published 2024)
